Molecules are shown by their SMILES.

As to `CCOC(OCC)C(=O)OCc1c(-c2cnccn2)ssc1=O`, the melting point – broadly, the temperature of the solid-liquid transition – was in the range of 74 to 76 °C.

Take `COC(=O)C1=Cc2cc(-c3ccc(N4CCOCC4)cc3)ccc2N(C=O)CC1`: the melting point lay in the range of 178 to 181 °C.

For `C=COCCN1CCC(Nc2nc3ccccc3n2Cc2ccc(F)cc2)CC1`, the melting point turned out to be 138 °C.

`C[C@@H]1S[C@@H](C(=O)Nc2ccc(CN3C(=O)CNC3=O)cc2)Cc2cc3c(cc2C1=O)OCO3` had a melting point of 139 to 144 °C.

In turn, `COC(=O)C1=C(C)NC(C)=C(C(=O)OC(C)C)C1c1cc([N+](=O)[O-])ccc1Cl` (configuration not stated) registered a melting point of 163 °C.

As to `COc1nn(-c2ccnc(N[C@H]3CC[C@H](O)CC3)n2)c2ccccc12`, the melting point fell in the range of 202 to 205 °C.

The compound `c1ccc(-c2nc(COc3ccc(CCCn4ccnc4)cc3)cs2)cc1` had a melting point of 110 to 111 °C.

`COC(=O)Nc1nc2cc(C)[nH]c2c(=O)[nH]1` gave a melting point of 234 to 236 °C.

For the compound `Cc1ccc(C2(c3ccc(C)cc3)OC(=O)N3CCN(C(=O)Nc4ccc(F)cc4F)CC32)cc1` (configuration not stated), the melting point was 120 to 122 °C.

The compound `O=C(O)CCc1cn(Cc2ccc(C(=O)NCc3ccc(C(F)(F)F)cc3)cc2)nc1-c1ccccc1` had a melting point of 151 to 152 °C.

Take `O=C(NC(=S)Nc1cccc(Oc2ccccc2)c1)c1cccnc1`: the melting point lay within 144 to 146 °C.

Compound `CNC(=S)C1(c2ccncc2)CCCS1` (configuration not stated) displayed a melting point of 178 °C.

`CC(C)Nc1cccnc1N1CCN(C(=O)c2ccc(C(=O)N3CCN(CC(O)CO)CC3)cc2)CC1` (configuration not stated) yielded a melting point of 158 °C.

As to `CC(O)c1cccc(-c2ccc(CC34CCCN3C(=O)N(c3cc(Cl)cc(Cl)c3)C4=O)cc2)c1` (configuration not stated), the melting point is 66.5 °C.

As for `CC(C)(C)OC(=O)N[C@@H]1C[C@H](CO)[C@@H](OC(=O)c2ccccc2)[C@H]1OC(=O)c1ccccc1`, the melting point lay within 78 to 79 °C.

`Clc1ccc(Nc2cncc(-n3cccn3)n2)cc1` showed a melting point of 155 to 157 °C.

On to `CC(C)(C)c1ccc(-c2ccc(F)cc2)n1CC[C@H]1C[C@H](O)CC(=O)O1` (relative stereo), for which the melting point was in the range of 177 to 178 °C.

Compound `CC1(Cn2nc(Cc3ccc(Cl)cc3)oc2=O)Cn2cc([N+](=O)[O-])nc2O1` (configuration not stated) showed a melting point of 151 to 153 °C.

`C[C@H](OC(=O)CCC(=O)O[C@@H](C)C(=O)O)C(=O)O` displayed a melting point of 59 to 61 °C.

On to `Cc1cc2n(c1)CN(CCCO)c1ccccc1-2`, for which the melting point was in the range of 77 to 78 °C.

`CN(C)c1ccc(C(=C2SCCCS2)c2ccccc2)cc1` yielded a melting point of 172 to 174 °C.

Turning to `CCCCC1(Cn2ccnc2)SCCS1`, the melting point is 131 to 135 °C.

As to `COC(=O)C1=C(C)NC(C)=C(C(=O)OCCN2CCN(C(c3ccccc3)c3ccccc3)CC2)C1c1cccc(C(F)(F)F)c1` (configuration not stated), the melting point was 70 to 72 °C.

`CC(C)(c1ccccc1)N1CC=C(c2ccccc2)C1=O` gave a melting point of 85 to 86 °C.

`CCOC(=O)c1sc(SC(C)C)c2c1CCc1nc(C)oc1-2`: the melting point fell in the range of 62 to 63 °C.

Turning to `C=CC1CC2=CC(=O)CCC2C2CCC3(C)C(OC(C)=O)CCC3C12` (configuration not stated), the melting point lay in the range of 130 to 134 °C.

Compound `Cc1oc(-c2ccco2)nc1COc1cccc(CO)c1` came in with a melting point of 100 to 101 °C.

With `NCc1ccc(-n2c(-c3cccnc3N)nc3ccc(-c4ccccc4)nc32)cc1`, the melting point was in the range of 215 to 218 °C.

Consider `Fc1cccc(-c2cncnc2)c1`, for which the melting point lay within 63 to 63.5 °C.

For `CCc1ccc(C=O)nc1`, the melting point was in the range of 138 to 140 °C.

Compound `C=C(C)CC(O)C(Br)(Br)Br` (configuration not stated) returned a melting point of 64 to 65 °C.

As for `NC(=O)N(O)CC=Cc1cccc(F)c1Sc1ccc(Cl)cc1`, the melting point lay within 125 to 127 °C.

For `OC(c1cccc(C(F)(F)F)c1)C1CCN(CCc2ccccc2)CC1` (configuration not stated), the melting point lay within 143 to 147 °C.

Regarding `CCN1C(=O)C=C(c2ccc(Cl)c(Cl)c2)C1=O`, the melting point was in the range of 138 to 141 °C.

`COc1cc(OCc2cccnc2)ccc1/C=C/c1cc(/C=C/c2cc3ccccc3[nH]2)n[nH]1`: the melting point lay within 126 to 138 °C.

With `CCOc1c(OC)cccc1-c1nc2ccc(C(=O)Cl)cc2c(=O)[nH]1`, the melting point is 93 to 94 °C.

With `CNc1sc(-c2cccnc2)nc1C(F)(F)F`, the melting point fell in the range of 152 to 157 °C.

`CC(C)c1nn2ccccc2c1Br` displayed a melting point of 51 to 52 °C.

For the compound `CNc1cccc(OC)c1N`, the melting point lay in the range of 60 to 61 °C.

Compound `CC1(C)C(=O)c2c(cc(O)c(Cl)c2Cl)C1c1ccccc1` (configuration not stated) had a melting point of 259 to 262 °C.

Take `CC(C)(C)OC(=O)N1CCCN(c2ccc(F)cc2)CC1`: the melting point was 88 to 89 °C.

Take `CNCCOc1ccc(C(=C(CCO)c2ccccc2)c2ccccc2)cc1`: the melting point was in the range of 134 to 139 °C.

The compound `Cc1cc(C=O)c(OCCCCOc2c(C=O)cc(C)cc2C=O)c(C=O)c1` had a melting point of 205 °C.

The compound `CCCc1c(OCCCOc2ccc3c(c2CCC)OC(C)(CCC(=O)N(C)CC(=O)OCC)CC3=O)ccc(C(C)=O)c1O` (configuration not stated) registered a melting point of 101 to 102 °C.

For `COc1cc(OC)nc(C2(O)OC(=O)c3c(-c4ccc(Cl)cc4)ccnc32)n1` (configuration not stated), the melting point lay within 228 to 231 °C.

With `CSc1ccc(NC(=O)C(C#N)C(=O)c2cccn2C)cc1` (configuration not stated), the melting point lay in the range of 167 to 168 °C.

On to `Cc1nc2cc(NCC(=O)C3(C)CC3)ccc2s1`, for which the melting point lay within 116 to 120 °C.

Turning to `COC(=O)COc1ccc2cc(-c3ccc(-c4ccccc4)n3Cc3ccccc3)ccc2c1`, the melting point fell in the range of 101 to 102 °C.

Take `O=C1CN2CCCC1C2` (configuration not stated): the melting point lay in the range of 83 to 87 °C.

On to `CCCN(c1cc(Cl)ncn1)n1cccc1`, for which the melting point was in the range of 52 to 54 °C.

Compound `Cc1ccc(S(N)(=O)=O)cc1NC(=O)c1cnn2c(C(F)(F)F)cc(-c3ccc(C(F)(F)F)cc3)nc12` came in with a melting point of 310 °C.

In turn, `COC(=O)Nc1nc2cc(S(=O)CC3CCCCC3)ccc2[nH]1` (configuration not stated) gave a melting point of 272 to 274 °C.

Compound `COc1cc(Cc2cnc(NCCSCc3ncccc3Br)[nH]c2=O)ccn1` had a melting point of 70 to 72 °C.

For the compound `CCOP(=O)(Cc1ccc(NC(=O)[C@H]2Cc3cc4c(cc3C(=O)[C@H](C)S2)OCO4)cc1)OCC`, the melting point is 181 to 182 °C.

`CC(=O)OC1CSC(Oc2cccc(C(C)=O)c2)C(OC(C)=O)C1OC(C)=O` (configuration not stated) registered a melting point of 150 to 153 °C.

In the case of `COC(=O)C1(C)OCC(c2ccccc2)(c2ccccc2)CO1`, the melting point was found to be 116 °C.

`Cc1ccc(Sc2nc(F)c(C#N)cc2F)cc1` had a melting point of 120 to 121 °C.

Consider `CCc1c(Sc2cc(C)cc(C)c2)n(CC2=CC(CO)C(CO)C2)c(=O)[nH]c1=O` (configuration not stated), for which the melting point is 156 to 157 °C.

For `CCCCCCCCCCCCNC1=NC(N2CCOCC2)=NCN1`, the melting point lay within 117 to 118 °C.

`COc1cc2[nH]c(=O)c3ccccc3c2cc1OC` had a melting point of 253 to 255 °C.

`Clc1c2ccccc2nc2c1sc1ccccc12` showed a melting point of 158 to 159 °C.

`O=C1C2CCCCC2C(=O)N1CCOC(OCCN1C(=O)C2CCCCC2C1=O)(C(=O)c1ccccc1)c1ccccc1` (configuration not stated): the melting point was 115 to 116 °C.

`COc1ccc(CCc2ccc3ccc(C(=O)NCC(O)c4ccccc4)c(O)c3n2)cc1` (configuration not stated) gave a melting point of 69 to 72 °C.

Turning to `CC(S)C(=O)NCCc1ccccc1` (configuration not stated), the melting point was 78 to 79 °C.

Take `CCOC(=O)c1nc2n(n1)-c1ccc([N+](=O)[O-])cc1C(c1ccccc1F)=NC2`: the melting point was in the range of 165 to 167 °C.

Turning to `O=C(CCS)N[C@@H](Cc1ccc(O)c(O)c1)C(=O)O`, the melting point lay in the range of 89 to 91 °C.

As for `CC(Nc1ccc(Cl)c(Cl)c1)C(=O)NCC#N` (configuration not stated), the melting point was in the range of 134 to 135 °C.

With `Cc1cnc(C(=O)c2[nH]c3ccc(Cl)cc3c2CC(=O)O)cc1C`, the melting point lay in the range of 245 to 246 °C.

In the case of `C#Cc1ccc2c(c1-c1cn(C3CC(O)C(COC(c4ccccc4)(c4ccc(OC)cc4)c4ccc(OC)cc4)O3)c(=O)[nH]c1=O)Cc1ccccc1-2` (configuration not stated), the melting point was 160 to 161 °C.

In turn, `Nc1sccc1C(=O)c1cccc(C(F)(F)F)c1` returned a melting point of 143 to 145 °C.

Consider `Cc1cc(C)c(CSc2ccccc2)c(-c2ccc(F)c(C)c2)c1`, for which the melting point fell in the range of 72 to 74 °C.

As for `COc1cc(OC)nc(-c2c(C)[nH]c3ccccc23)n1`, the melting point was in the range of 182 to 184 °C.

`O=Cc1ccc(-c2ccc(-c3ccccc3)s2)s1`: the melting point fell in the range of 119 to 121 °C.

Turning to `CCOC(=O)NN=Cc1nc(Cc2ccccc2)[nH]c1C`, the melting point lay in the range of 190 to 192 °C.

Consider `CC(=O)Nc1ccccc1NS(=O)(=O)c1cc(C(=O)O)cc([N+](=O)[O-])c1Oc1ccccc1`, for which the melting point was in the range of 224 to 226 °C.

Compound `Cc1cccc(NC(=O)NC2CN(C(=O)C3CC3)c3ccccc3N(CC(=O)c3ccccc3C)C2=O)c1` (configuration not stated) gave a melting point of 207 to 209 °C.

Compound `COc1ccc(NC(=O)N(Cc2ccccc2)Cc2cccnc2)c(NC(=O)c2cc(C(C)(C)C)c(O)c(C(C)(C)C)c2)c1` showed a melting point of 120 to 128 °C.

In turn, `CN(C)C1CCN(c2cc3c(Cl)cccc3c(=O)[nH]2)CC1` showed a melting point of 210 to 211 °C.

For `Cc1nnc2n1-c1sc(CCc3ccc(OC(C)C)cc3)cc1C(c1ccccc1Cl)=NC2`, the melting point is 121 to 124 °C.

`CN1C(=O)C(F)N=C(c2ccccc2F)c2cc(Cl)ccc21` (configuration not stated) returned a melting point of 91 to 95 °C.

`CCC(C)NCC(O)COc1ccc2c(=O)c(-c3ccccc3)c(-c3ccccc3)oc2c1` (configuration not stated) returned a melting point of 139 to 140 °C.

In turn, `COc1cc2cc(N)cnc2cc1F` had a melting point of 153 °C.

Take `CS(=O)(=O)c1ccc(-c2oc3ccccc3c(=S)c2-c2ccc(F)cc2)cc1`: the melting point is 203 to 205 °C.

Compound `CCCN(c1ccc(C(=O)OCC)cc1)c1nc(=O)c2cccnc2s1` gave a melting point of 155 to 157 °C.

`Cc1c(F)c(N2CCC(n3ccnn3)C2)c(F)c2c1c(=O)c(C(=O)O)cn2C1CC1` (configuration not stated) registered a melting point of 228 to 230 °C.

The compound `CCOC(=O)c1cn(Cc2ccccc2)nc1OCc1ccc(OCc2nc(-c3ccccc3)oc2C)c(OC)c1` showed a melting point of 154 to 155 °C.

Take `Cc1cccc(C)c1N1CCN(CCNc2c(Cl)cnn(C)c2=O)CC1`: the melting point is 225 to 232 °C.
